For 52 compounds, EC50 and IC50 results are on record in ChEMBL document CHEMBL5236587, “Discovery of oxazoline enhancers of cellular progranulin release” (Bioorg Med Chem Lett, 2023).

Experiment [1] is described as follows: Induction of progranulin secretion in mouse BV-2 cells. Type of experiment: functional, cell-based.
The target in experiment [2] is Voltage-gated inwardly rectifying potassium channel KCNH2 (Homo sapiens, UniProt Q12809). Kind of experiment: Inhibition of human ERG. Format: toxicity.
Sequence of Voltage-gated inwardly rectifying potassium channel KCNH2 (Q12809 whole entry): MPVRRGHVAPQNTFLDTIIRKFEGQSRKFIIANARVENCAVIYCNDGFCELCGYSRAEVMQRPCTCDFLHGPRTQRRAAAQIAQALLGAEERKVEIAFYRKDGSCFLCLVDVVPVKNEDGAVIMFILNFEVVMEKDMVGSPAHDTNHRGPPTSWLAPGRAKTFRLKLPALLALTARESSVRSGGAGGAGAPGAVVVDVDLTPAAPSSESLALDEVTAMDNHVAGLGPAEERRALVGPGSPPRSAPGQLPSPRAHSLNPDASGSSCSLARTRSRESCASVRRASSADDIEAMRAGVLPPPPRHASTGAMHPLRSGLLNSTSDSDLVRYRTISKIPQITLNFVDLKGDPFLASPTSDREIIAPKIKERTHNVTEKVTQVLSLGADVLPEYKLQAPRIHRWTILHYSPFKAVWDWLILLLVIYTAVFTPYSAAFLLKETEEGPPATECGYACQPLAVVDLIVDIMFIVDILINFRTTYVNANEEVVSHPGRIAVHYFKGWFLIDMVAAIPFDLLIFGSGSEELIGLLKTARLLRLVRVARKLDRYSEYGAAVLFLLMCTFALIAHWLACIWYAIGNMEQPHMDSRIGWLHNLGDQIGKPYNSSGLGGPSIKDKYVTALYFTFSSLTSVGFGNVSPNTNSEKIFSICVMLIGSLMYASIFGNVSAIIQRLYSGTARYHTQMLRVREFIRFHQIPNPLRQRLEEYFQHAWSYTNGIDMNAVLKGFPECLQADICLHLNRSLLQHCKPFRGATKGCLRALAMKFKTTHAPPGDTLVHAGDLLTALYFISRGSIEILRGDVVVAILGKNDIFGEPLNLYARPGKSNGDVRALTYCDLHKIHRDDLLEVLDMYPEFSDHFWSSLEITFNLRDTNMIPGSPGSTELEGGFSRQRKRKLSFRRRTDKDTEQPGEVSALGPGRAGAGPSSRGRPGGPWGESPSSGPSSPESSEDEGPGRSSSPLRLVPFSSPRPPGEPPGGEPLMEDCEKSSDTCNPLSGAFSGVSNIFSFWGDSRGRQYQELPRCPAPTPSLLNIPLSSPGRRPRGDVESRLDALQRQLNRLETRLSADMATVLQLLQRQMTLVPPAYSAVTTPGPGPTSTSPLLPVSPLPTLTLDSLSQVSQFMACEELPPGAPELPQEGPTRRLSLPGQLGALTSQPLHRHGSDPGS

Some results are limits rather than exact numbers.

As to `Fc1ccc([C@H]2c3ccccc3CCN2C2=NC[C@@H]3NCC[C@@H]3O2)cc1`, it took 455 nM to reach a half-maximal effect in experiment [1] (EC50).
In experiment [2], `CN1CC[C@@]2(CN=C(N3CCc4ccccc4[C@@H]3c3ccc(F)cc3)O2)C1` gave an IC50 of 1700 nM. Also, the EC50 in experiment [1] worked out at 176 nM.
`OCCCN1CC[C@@]2(CN=C(N3CCc4ccccc4[C@@H]3c3ccc(F)cc3)O2)C1`: the IC50 in experiment [2] is 4800 nM. The compound further came in with a concentration giving a half-maximal response (EC50) in experiment [1] of 181 nM.
`Fc1ccc([C@H]2c3ccccc3CCN2C2=NC[C@@H]3CNCC[C@H]3O2)cc1` came in with a concentration for half-maximal inhibition (IC50) in experiment [2] of 3100 nM. The EC50 in experiment [1] came to 35 nM.
For the compound `Fc1ccc([C@H]2c3ccccc3CCN2C2=NC[C@H](C3(F)CNC3)O2)cc1`, the IC50 in experiment [2] worked out at 11000 nM. In experiment [1], this compound registered an EC50 of 192 nM.
`N[C@H]1CC[C@]2(COC(N3CCc4ccccc4[C@@H]3c3ccc(F)cc3)=N2)C1` displayed an EC50 in experiment [1] of 160 nM.
With `NC[C@H]1C[C@]2(CN=C(N3CCc4ccccc4[C@@H]3c3ccc(F)cc3)O2)C1`, the EC50 in experiment [1] amounted to 206 nM.
In turn, `Fc1ccc([C@H]2c3ccccc3CCN2C2=NC[C@H]3NCC[C@H]3O2)cc1` registered an EC50 in experiment [1] of 423 nM.
`CN(C)[C@H]1C[C@]2(CN=C(N3CCc4ccccc4[C@@H]3c3ccc(F)cc3)O2)C1` had an EC50 in experiment [1] of 3580 nM.
As for `CN1CC[C@]2(CN=C(N3CCc4ccccc4[C@@H]3c3ccc(F)cc3)O2)C1`, the IC50 in experiment [2] came to 510 nM. This compound came in with a half-maximal effective concentration (EC50) in experiment [1] of 69 nM.
Consider `N[C@@H]1CC[C@]2(CN=C(N3CCc4ccccc4[C@@H]3c3ccc(F)cc3)O2)C1`, for which the 50% effective concentration (EC50) in experiment [1] stood at 236 nM. That is a sub-micromolar value.
Consider `N[C@H]1C[C@@]2(COC(N3CCc4ccccc4[C@@H]3c3ccc(F)cc3)=N2)C1`, for which a half-maximal effect in experiment [1] (EC50) was put at 639 nM. Against the preceding compound, the EC50 is about 2.7-fold higher.
Consider `OCCN1CC[C@@H]2OC(N3CCc4ccccc4[C@@H]3c3ccc(F)cc3)=NC[C@@H]2C1`, for which the response in experiment [1] was half-maximal at 37 nM (EC50).
In turn, `N[C@@H]1CC[C@@]2(CN=C(N3CCc4ccccc4[C@@H]3c3ccc(F)cc3)O2)C1` displayed an IC50 in experiment [2] of 8800 nM. Further, the midpoint of the response in experiment [1], the EC50, lay at 119 nM.
Compound `Fc1ccc([C@H]2c3ccccc3CCN2C2=NC[C@H]([C@H]3CCNC3)O2)cc1` yielded an IC50 in experiment [2] of 2300 nM. The midpoint of the response in experiment [1], the EC50, lay at 85 nM.
In turn, `Fc1ccc([C@H]2c3ccccc3CCN2C2=NC[C@]3(CCNC3)O2)cc1` displayed an EC50 in experiment [1] of 21 nM. This lies in the double-digit nanomolar range.
In experiment [1], `OCCN1CC[C@H]2OC(N3CCc4ccccc4[C@@H]3c3ccc(F)cc3)=NC[C@H]2C1` gave an EC50 of 230 nM.
In experiment [2], `Fc1ccc([C@H]2c3ccccc3CCN2C2=NC[C@H]([C@@H]3CCNC3)O2)cc1` yielded an IC50 of 6700 nM. Also, the midpoint of the response in experiment [1], the EC50, lay at 208 nM.
`Fc1ccc([C@H]2c3ccccc3CCN2C2=N[C@@]3(CCCNC3)CO2)cc1` yielded an EC50 in experiment [1] of 38 nM. That is a double-digit nanomolar value.
For `Fc1ccc([C@H]2c3ccccc3CCN2C2=NC[C@H]3CNCC[C@@H]3O2)cc1`, in experiment [1], the EC50 worked out at 1550 nM. This EC50 is about 41-fold higher than that of the compound before.
In experiment [1], `N[C@H]1CC[C@@]2(COC(N3CCc4ccccc4[C@@H]3c3ccc(F)cc3)=N2)C1` had a concentration for a half-maximal effect (EC50) of 204 nM.
In experiment [1], `Fc1ccc([C@H]2c3ccccc3CCN2C2=NC[C@H](C3CN4CCC3(F)CC4)O2)cc1` (stereo partly specified) returned an EC50 greater than 10000 nM.
Compound `Fc1ccc([C@H]2c3ccccc3CCN2C2=NC[C@H](C3CN4CCC3CC4)O2)cc1` (stereo partly specified) returned an IC50 in experiment [2] of 680 nM. In experiment [1], this compound gave an EC50 of 387 nM.
For `Fc1ccc([C@H]2c3ccccc3CCN2C2=NC[C@@]3(CCCNC3)O2)cc1`, the midpoint of the response in experiment [1], the EC50, lay at 502 nM.
Take `Fc1ccc([C@H]2c3ccccc3CCN2C2=NC[C@H]3CNC[C@H]3O2)cc1`: the IC50 in experiment [2] was 5100 nM. The same compound had an EC50 in experiment [1] of 111 nM.
In experiment [1], `Fc1ccc([C@H]2c3ccccc3CCN2C2=NCC3(CCNCC3)O2)cc1` came in with a concentration for a half-maximal effect (EC50) of 59 nM.
Still for that read-out and setting: the figure for `Fc1ccc([C@H]2c3ccccc3CCN2C2=NC[C@@H]3CNC[C@@H]3O2)cc1` is 950 nM.
`N[C@H]1C[C@@]2(CN=C(N3CCc4ccccc4[C@@H]3c3ccc(F)cc3)O2)C1` returned an EC50 in experiment [1] of 522 nM. This EC50 lies about 1.8-fold lower than the previous one.
On to `N[C@H]1CC[C@@]2(CN=C(N3CCc4ccccc4[C@@H]3c3ccc(F)cc3)O2)C1`, for which, in experiment [1], a half-maximal response (EC50) required 127 nM.
`CN(C)[C@H]1CC[C@@]2(CN=C(N3CCc4ccccc4[C@@H]3c3ccc(F)cc3)O2)C1` returned an IC50 in experiment [2] of 3600 nM. Also, in experiment [1], the EC50 came out at 237 nM.
With `CN(C)[C@H]1CC[C@]2(CN=C(N3CCc4ccccc4[C@@H]3c3ccc(F)cc3)O2)C1`, the half-maximal inhibitory concentration (IC50) in experiment [2] came to 7800 nM. This compound also registered a concentration giving a half-maximal response (EC50) in experiment [1] of 137 nM.
Take `Fc1ccc([C@H]2c3ccccc3CCN2C2=NC[C@@H](C3CNC3)O2)cc1`: in experiment [2], the midpoint of inhibition, the IC50, lay at 6200 nM. Moreover, the EC50 in experiment [1] was 97 nM.
In experiment [1], `CN1CCCC2(COC(N3CCc4ccccc4[C@@H]3c3ccc(F)cc3)=N2)C1` (stereo partly specified) returned an EC50 of 796 nM.
With `Fc1ccc([C@H]2c3ccccc3CCN2C2=NC[C@H]3CNCC[C@H]3O2)cc1`, a half-maximal effect in experiment [1] (EC50) was put at 335 nM. Compared with the last compound, the EC50 is about 2.4-fold lower.
Still for that read-out and setting: the figure for `NC[C@H]1C[C@@]2(CN=C(N3CCc4ccccc4[C@@H]3c3ccc(F)cc3)O2)C1` is 993 nM.
Still for that read-out and setting: the figure for `Fc1ccc([C@H]2c3ccccc3CCN2C2=NC[C@@H](C3CN4CCC3(F)CC4)O2)cc1` (stereo partly specified) is 382 nM.
On to `Fc1ccc([C@H]2c3ccccc3CCN2C2=N[C@@H](C3(F)CNC3)CO2)cc1`, for which inhibition in experiment [2] was half-maximal at 10000 nM (IC50). Also, in experiment [1], the EC50 was 119 nM.
With `Fc1ccc([C@H]2c3ccccc3CCN2C2=N[C@H]3CNC[C@H]3O2)cc1`, in experiment [1], a half-maximal response (EC50) required 517 nM.
Compound `Fc1ccc([C@H]2c3ccccc3CCN2C2=NC[C@@H]3NCC[C@H]3O2)cc1` yielded an EC50 in experiment [1] of 659 nM. This EC50 and that of the compound before are within 1.5-fold of each other.
With `Fc1ccc([C@H]2c3ccccc3CCN2C2=NC[C@]3(CCCNC3)O2)cc1`, the response in experiment [1] was half-maximal at 64 nM (EC50).
With `Fc1ccc([C@H]2c3ccccc3CCN2C2=N[C@H](C3CN4CCC3CC4)CO2)cc1` (stereo partly specified), the midpoint of the response in experiment [1], the EC50, lay at 126 nM. This EC50 is about 2-fold higher than that of the compound before.
`Fc1ccc([C@H]2c3ccccc3CCN2C2=N[C@@H]3CNC[C@@H]3O2)cc1` showed a 50% effective concentration (EC50) in experiment [1] of 674 nM.
Compound `CN1CCC2(CC1)COC(N1CCc3ccccc3[C@@H]1c1ccc(F)cc1)=N2` registered an EC50 in experiment [1] of 7030 nM.
For the compound `Fc1ccc([C@H]2c3ccccc3CCN2C2=N[C@]3(CCCNC3)CO2)cc1`, in experiment [1], the EC50 is 85 nM. This EC50 lies about 83-fold lower than the previous one.
As for `Fc1ccc([C@H]2c3ccccc3CCN2C2=NC[C@@H]([C@H]3CCNC3)O2)cc1`, the 50% inhibitory concentration (IC50) in experiment [2] came to 3900 nM. Further, the midpoint of the response in experiment [1], the EC50, lay at 244 nM.
Regarding `N[C@H]1CC[C@]2(CN=C(N3CCc4ccccc4[C@@H]3c3ccc(F)cc3)O2)C1`, the concentration giving a half-maximal response (EC50) in experiment [1] was 110 nM.
Take `Fc1ccc([C@H]2c3ccccc3CCN2C2=NC[C@H](C3CNC3)O2)cc1`: half-maximal inhibition in experiment [2] (IC50) was put at 2200 nM. This compound also registered an EC50 in experiment [1] of 109 nM.
In turn, `Fc1ccc([C@H]2c3ccccc3CCN2C2=N[C@H]3CNC[C@H]3CO2)cc1` had an IC50 in experiment [2] of 3300 nM. This compound returned an EC50 in experiment [1] of 275 nM.
`Fc1ccc([C@H]2c3ccccc3CCN2C2=NC[C@@H]([C@@H]3CCNC3)O2)cc1` gave an IC50 in experiment [2] of 5400 nM. Moreover, the EC50 in experiment [1] amounted to 55 nM.
For the compound `Fc1ccc([C@H]2c3ccccc3CCN2C2=NC3(CCNCC3)CO2)cc1`, the response in experiment [1] was half-maximal at 157 nM (EC50).
Still for that read-out and setting: under `Fc1ccc([C@H]2c3ccccc3CCN2C2=N[C@@H](C3CN4CCC3CC4)CO2)cc1` (stereo partly specified) stands 231 nM.
In the case of `CN(C)[C@H]1C[C@@]2(CN=C(N3CCc4ccccc4[C@@H]3c3ccc(F)cc3)O2)C1`, in experiment [2], the IC50 stood at 7000 nM. The concentration giving a half-maximal response (EC50) in experiment [1] was 209 nM.
